Experimental data from US10092648B2, “Selective glucagon-like-peptide-2 (GLP-2) analogues” (Zealand Pharma A/S, priority 2006, dated 2018).
Read-outs that look alike come from different tables or passages of the source.

Assays:
[1] = amino acid side-chain; defined by W. D. Stein 1967; cited from earlier work
[2] = test system: male C57BL mice; assay: In vivo stimulation of intestinal growth, 800 nmol/kg (Example 10); design: key to Small intestine-colon sensitivity index: (SI/Colon) of compound divided by (SI/Colon) of reference GLP-2; conditions: 800 nmol/kg s.c. once daily for 3 days; for Sensitivity index Si/Colon / Sensitivity index Stomach/Co: relative to 1559; for Colon: colon mass relative to BW, % vs. [Gly2]GLP-2; for SI (% vs. [Gly2]GLP-2: small intestine mass relative to BW, [Gly2]GLP-2 = 100%
From the text: Individual groups (n=6-10) of mice were given 800 nmol/kg of each compound, s.c, once daily for three consecutive days. For comparison purposes other groups of animals were given either an equimolar dose of [[…]]GLP-2 (ZP1559) or vehicle (phosphate buffered saline, pH 7.4) in the same dosing regimen Twenty-four hours after the last dose of compound had been given the mice were sacrificed and the small intestine (from the pylorus to the cecum) and the colon (intestine distal to cecum) was emptied and weighed. To correct for slight difference in body weight (BW), the organ mass of the small intestine (SI) and colon were expressed relative to BW. The non-selective reference compound [[…]]GLP-2 has been reported to stimulate gastrointestinal growth in both esophagus, stomach, small intestine and colon and to evaluate differences in growth pattern induced by compounds, the small intestine-colon sensitivity index of compound X was calculated as: […]

[3] = target: T1, hGLP-2 receptor (Homo sapiens, UniProt O95838); assay: In vitro screening for agonism on the GLP-2 receptor recombinantly expressed in BHK-21 cells (CRE-luciferase reporter); type: cell-based
T1 construct: expressed in transfected cells; host or cells: BHK-21 (C13) cells, transient transfection with Lipofectamine 2000
T1 sequence (O95838 1-553): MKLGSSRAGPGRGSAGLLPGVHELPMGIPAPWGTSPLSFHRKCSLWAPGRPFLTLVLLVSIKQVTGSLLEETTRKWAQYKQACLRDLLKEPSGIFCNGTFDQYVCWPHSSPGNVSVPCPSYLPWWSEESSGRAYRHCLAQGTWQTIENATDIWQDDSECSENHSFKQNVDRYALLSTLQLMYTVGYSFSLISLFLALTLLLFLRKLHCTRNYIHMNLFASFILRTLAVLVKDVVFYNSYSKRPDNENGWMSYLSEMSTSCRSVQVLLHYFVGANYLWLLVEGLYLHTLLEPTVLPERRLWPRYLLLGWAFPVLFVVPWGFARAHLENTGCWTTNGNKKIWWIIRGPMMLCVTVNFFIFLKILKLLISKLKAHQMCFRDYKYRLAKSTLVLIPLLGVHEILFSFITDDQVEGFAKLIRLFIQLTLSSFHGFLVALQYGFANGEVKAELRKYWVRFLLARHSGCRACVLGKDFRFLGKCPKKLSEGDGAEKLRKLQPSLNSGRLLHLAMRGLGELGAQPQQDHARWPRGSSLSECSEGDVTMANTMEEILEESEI
Experimental: The screening was done using BHK21 cells transiently transfected with GLP-2 receptor and the CRE-luciferase reporter gene construct. Dose-response curves and EC50 values were determined using seven concentrations from 10 fM to 10 nM and triplicate points for each concentration. Control peptide was used on all test plates. BHK-21 cells are seeded in 10 cm TC-Petri dishes and grown to 70-80% confluency. Subsequently, medium is changed to serum-free transfection medium. DNA (7.5 μg hGLP-2 receptor vector and 7.5 μg CRE-luciferase vector) and Lipofectamine 2000 are diluted in OptiMEM, combined, and added to the cells after 20-30 min. Cells are incubated in the incubator at 37° C., 5% CO2 for 4 hr, trypsinized, and reseeded at 35,000 cells per well in 96-well plates. Cells are incubated overnight in full growth medium in order to allow expression of the transgenes. […] Baseline activity is controled with stimulation buffer alone. These solutions are pre-warmed to 37° C. for 30 min. Cells are rinsed with pre-warmed (37° C.) stimulation buffer, and incubated with 100 μl of the pre-warmed peptide dilutions and control for 5 hr at 37° C., 5% CO2. The LucLite enzyme substrate/lysis buffer is prepared shortly before the end of the incubation. 100 μl LucLite substrate are added to each well, and light emission is counted on a suitable counter (e.g. Wallac VictorII). EC50 values are derived from the raw data by fitting with a four parameter logistic equation (Microcal Origin 5.0 or GraphPad 4).

[4] = test system: male C57BL mice; assay: In vivo stimulation of intestinal growth, 200 nmol/kg (Example 11)
Experimental: The ability of further compounds to selectively stimulate small intestinal mass, relative to colon mass was determined in male C57BL mice. A similar protocol was used to that described above in Example 10 except that 200 nmol/kg of each compound was administered per day. Thus, individual groups (n=6-10) of mice were given 200 nmol/kg of each compound, s.c, once daily for three consecutive days. Other groups of animals were given either an equimolar dose of [[…]]GLP-2 (reference compound) or vehicle (phosphate buffered saline, pH 7.4; negative controls) in the same dosing regimen. Twenty-four hours after the last dose of compound the mice were sacrificed and the stomach, small intestine and the colon emptied and weighed.

[5] = test system: male C57BL mice; assay: In vivo stimulation of stomach growth, 200 nmol/kg (Example 12)
Experimental: The effects of the test compounds according to the invention were determined based on the ability of the peptides to selectively increase stomach mass, relative to vehicle control. The ability of the present compounds (ZP2395, ZP2396, ZP2400, ZP2412, ZP2394 and ZP2401) to selectively stimulate stomach mass, relative to colon mass was determined in male C57BL mice. Individual groups (n=6-10) of mice were given 200 nmol/kg of each compound, s.c, once daily for three consecutive days. For comparison purposes other groups of animals were given either an equimolar dose of [[…]]GLP-2 or vehicle (phosphate buffered saline, pH 7.4) in the same dosing regimen. Twenty-four hours after the last dose of compound had been given the mice were sacrificed and the stomach and small intestine (from the pylorus to the ileocaecal junction) emptied and weighed. To correct for slight difference in body weight (BW), the organ mass of the stomach is presented relative to BW. […] To evaluate the differential growth pattern induced by ZP compounds, compared to [[…]]GLP-2, on the stomach, the stomach-colon sensitivity index of compound X was calculated as: (Stomach/Colon)x/Stomach/(Colon)[[…]]GLP-2% Compounds with a stomach/colon sensitivity greater than or equal to 1.05 were considered relatively selective for the stomach.

[6] = target: T2, hGLP-2 receptor (human, UniProt O95838 1-553); assay: cell-based or functional assay
T2 sequence (looked up): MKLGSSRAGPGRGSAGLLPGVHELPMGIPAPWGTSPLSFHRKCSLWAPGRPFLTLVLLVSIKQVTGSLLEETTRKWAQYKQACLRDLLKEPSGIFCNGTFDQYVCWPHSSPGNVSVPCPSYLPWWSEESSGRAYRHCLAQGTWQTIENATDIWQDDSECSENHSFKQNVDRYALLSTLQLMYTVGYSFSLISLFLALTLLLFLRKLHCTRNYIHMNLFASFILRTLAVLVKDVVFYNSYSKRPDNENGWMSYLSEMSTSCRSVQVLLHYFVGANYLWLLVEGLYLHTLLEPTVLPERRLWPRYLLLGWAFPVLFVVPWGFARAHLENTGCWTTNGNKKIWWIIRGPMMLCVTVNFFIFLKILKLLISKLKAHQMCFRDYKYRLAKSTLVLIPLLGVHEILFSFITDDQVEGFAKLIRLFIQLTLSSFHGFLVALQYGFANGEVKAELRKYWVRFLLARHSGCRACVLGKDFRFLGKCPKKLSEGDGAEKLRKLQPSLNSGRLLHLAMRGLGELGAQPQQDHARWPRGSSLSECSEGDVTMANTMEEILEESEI

[7] = BHK21 cells transiently transfected with GLP-2 receptor and CRE-luciferase, 10 fM to 10 nM, read-out: pEC50 (converted)

C[C@H](N)C(=O)O [Ala]
HBP for the individual amino acids [1]: 0

CC(C)[C@H](N)C(=O)O [Val]
HBP for the individual amino acids [1]: 0

H-HGEGSFSDELETILEELAAEDFIEWLIETKITD-NH2 [ZP2266]
Colon-BW, compared to 1559 in % [2]: 100.6% | Organ selectivity (FIG. 8, unselective compounds) [2]: unselective for the small intestine, colon or stomach | SI-BW, compared to 1559 in % [2]: 95.3% | Sto-BW, compared to 1559 in % [2]: 93.6% | Sensitivity index Si/Colon [2]: 0.95 | Sensitivity index Stomach/Co [2]: 0.93 | Colon [2]: 101 ± 2% | SI (% vs. [Gly2]GLP-2 [2]: 95 ± 1% | EC50 [3, 7]: 0.558 nM

H-HGEGSFSDELATILEALAAADFIAWLIATKITD-NH2 [ZP2264]
Colon-BW, compared to 1559 in % ([4]; colon weight relative to body weight, relative to ZP1559): 109.5% | Sensitivity index Si/Co ([4]; ratio SI-BW / Colon-BW): 1.15 | SI-BW, compared to 1559 in % ([4]; small intestine weight relative to body weight, relative to ZP1559): 125.7% | Sensitivity index Stomach/Co ([5]; ratio Stomach-BW / Colon-BW): 0.79 | Stomach-BW, compared to 1559 in % ([5]; stomach weight relative to body weight, relative to ZP1559): 87% | Colon-BW, compared to 1559 in % [2]: 109.5% | Preferential stimulation of epithelial growth in the small intestine (summary) [2]: preferentially stimulating epithelial growth in the small intestine | SI-BW, compared to 1559 in % [2]: 125.7% | Sto-BW, compared to 1559 in % [2]: 87% | Small intestine-colon sensitivity index ([2]; (SI/Colon)x/(SI/Colon)[Gly2]GLP-2): 1.15 ± 0.03 | Sensitivity index Si/Colon [2]: 1.15 | Sensitivity index Stomach/Co [2]: 0.79 | Colon [2]: 109 ± 3 % | SI (% vs. [Gly2]GLP-2 [2]: 126 ± 3 % | EC50 [3, 7]: 0.00316 nM | EC50 ([3]; agonism on GLP-2 receptor in BHK-21 cells, read-out: IC 50 (FIG. 5)): 0.00355 nM

N[C@@H](CC(=O)O)C(=O)O [Asp]
HBP for the individual amino acids [1]: 3

H-HGEGSFSDELKTILESLAAADFIEWLIQTKITD-NH2 [ZP2269]
Colon-BW, compared to 1559 in % [2]: 94.7% | Organ selectivity (FIG. 8, unselective compounds) [2]: unselective for the small intestine, colon or stomach | SI-BW, compared to 1559 in % [2]: 97.4% | Sto-BW, compared to 1559 in % [2]: 99.8% | Sensitivity index Si/Colon [2]: 1.03 | Sensitivity index Stomach/Co [2]: 1.05 | Colon [2]: 95 ± 3% | SI (% vs. [Gly2]GLP-2 [2]: 97 ± 2% | EC50 [3, 7]: 0.0912 nM

H-HGEGSFSDELSTILESLAASDFISWLISTKITD-NH2 [ZP2263]
EC50 [3, 7]: 0.0145 nM

N[C@@H](Cc1c[nH]cn1)C(=O)O [His]
HBP for the individual amino acids [1]: 1

CSCC[C@H](N)C(=O)O [Met]
HBP for the individual amino acids [1]: 0

N[C@@H](Cc1c[nH]c2ccccc12)C(=O)O [Trp]
HBP for the individual amino acids [1]: 1

C[C@@H](O)[C@H](N)C(=O)O [Thr]
HBP for the individual amino acids [1]: 2

N[C@@H](CCC(=O)O)C(=O)O [Glu]
HBP for the individual amino acids [1]: 3

NC(=O)C[C@H](N)C(=O)O [Asn]
HBP for the individual amino acids [1]: 3

N=C(N)NCCC[C@H](N)C(=O)O [Arg]
HBP for the individual amino acids [1]: 3

H-HGEGSFSDELSTILESLAAADFIAWLIATKITD-NH2 [ZP2267]
Colon-BW, compared to 1559 in % [2]: 109.4% | Organ selectivity (FIG. 8, unselective compounds) [2]: unselective for the small intestine, colon or stomach | SI-BW, compared to 1559 in % [2]: 108.5% | Sto-BW, compared to 1559 in % [2]: 85.9% | Sensitivity index Si/Colon [2]: 0.99 | Sensitivity index Stomach/Co [2]: 0.79 | Colon [2]: 109 ± 4% | SI (% vs. [Gly2]GLP-2 [2]: 108 ± 2% | EC50 [3, 7]: 0.0135 nM

N[C@@H](CS)C(=O)O [Cys]
HBP for the individual amino acids [1]: 0

N[C@@H](Cc1ccc(O)cc1)C(=O)O [Tyr]
HBP for the individual amino acids [1]: 2

NCCCC[C@H](N)C(=O)O [Lys]
HBP for the individual amino acids [1]: 2

NC(=O)CC[C@H](N)C(=O)O [Gln]
HBP for the individual amino acids [1]: 3

H-HGEGSFSDELNTILESLAASDFISWLISTKITD-NH2 [ZP2270]
EC50 [3]: 0.0589 nM

B1: ZP2263 (peptide)
peptide: H-HGEGSFSDELSTILESLAASDFISWLISTKITD-NH2
pEC50 (CRE-luciferase reporter, BHK-21 cells transiently transfected with hGLP-2 receptor) [6]: 10.8

B2: ZP2266 (peptide)
peptide: H-HGEGSFSDELETILEELAAEDFIEWLIETKITD-NH2
pEC50 (CRE-luciferase reporter, BHK-21 cells transiently transfected with hGLP-2 receptor) [6]: 9.25

B3: ZP2270 (peptide)
peptide: H-HGEGSFSDELNTILESLAASDFISWLISTKITD-NH2
pEC50 (CRE-luciferase reporter, BHK-21 cells transiently transfected with hGLP-2 receptor) [6]: 10.2

B4: ZP2264 (peptide)
peptide: H-HGEGSFSDELATILEALAAADFIAWLIATKITD-NH2
pEC50 (CRE-luciferase reporter, BHK-21 cells transiently transfected with hGLP-2 receptor) [6]: 11.5

B5: ZP2268 (peptide)
peptide: H-HGEGSFSDELATILEALAASDFISWLISTKITD-NH2
pEC50 (CRE-luciferase reporter, BHK-21 cells transiently transfected with hGLP-2 receptor) [6]: 11.2

B6: ZP2242 (peptide)
peptide: H-HGEGSFSSELSTILDALAARDFIAWLIATKITDK-OH
pEC50 (CRE-luciferase reporter, BHK-21 cells transiently transfected with hGLP-2 receptor) [6]: 12.4

B7: ZP2267 (peptide)
peptide: H-HGEGSFSDELSTILESLAAADFIAWLIATKITD-NH2
pEC50 (CRE-luciferase reporter, BHK-21 cells transiently transfected with hGLP-2 receptor) [6]: 10.9

B8: ZP2269 (peptide)
peptide: H-HGEGSFSDELKTILESLAAADFIEWLIQTKITD-NH2
pEC50 (CRE-luciferase reporter, BHK-21 cells transiently transfected with hGLP-2 receptor) [6]: 10

B9: ZP2272 (peptide)
peptide: H-HGEGSFSDELATILESLAAADFISWLIATKITD-NH2
pEC50 (CRE-luciferase reporter, BHK-21 cells transiently transfected with hGLP-2 receptor) [6]: 11.3
